Test results taken from PMC7035259, “T-13 and T-26, the novel taxanes with improved oral bioavailability in rats” (Scientific Reports, 2020).

Columns and labels:
[1] = system: Caco-2 monolayer cells; design: method as in PMID 24332858; conditions: cited from earlier work
[2] = biological target: T1, P-glycoprotein (P-gp) (Homo sapiens, UniProt P08183); assay: Interaction with P-gp in MDCK-MDR1 and MDCK-WT cell permeability studies; format: in vitro ADME; conditions: MDCK-MDR1 and MDCK-WT cells; for P-gp substrate activity: with and without a P-gp inhibitor (such as verapamil); for P-gp inhibition: with and without a P-gp substrate (such as digoxin)
T1 construct: expressed in transfected cells; host or cells: MDCK-MDR1 (Madin-Darby canine kidney cells carrying MDR1); MDCK-WT as control
Text: In an attempt to increase the solubility of taxoids and develop more safe clinical formulations, we previously synthesized a series of novel taxol analogs by modifying the positions of C7, C10, C14 and C3′, which have improved water solubility and oral bioavailability. […] In order to further evaluate the substrate activity of novel taxol analogs with P-gp and whether they are P-gp inhibitors, T-13 and T-26 were selected based on structural characteristics (with or without 1, 14-carbonate moiety) and cytotoxicity in vitro for evaluation of the interaction with P-gp in Madin-Darby canine kidney (MDCK)-multidrug resistance-1 (MDR1) and MDCK-wild type (WT) cells (a more P-gp specific model)[13],[14] permeability studies, under two sets of conditions: one with and without a P-gp inhibitor (such as verapamil) to look at whether the test compounds were P-gp substrates or not, one with and without a P-gp substrate (such as digoxin) to look at whether the test compounds were P-gp inhibitors or not. […] Therefore, the permeability of the Caco-2 cells was enhanced in vitro.

[3] = Pharmacokinetics after intravenous and oral administration in rats (LC-MS/MS of plasma); format: in vivo, male Sprague-Dawley (S.D.) rats; conditions: oral 60 mg/kg vs intravenous 5 mg/kg, F = (AUCp.o × Dosei.v)/(AUCi.v × Dosep.o) × 100%; for bioavailability: male, Sprague-Dawley, rat, plasma, read-out: F (absolute oral bioavailability)
Protocol: For the pharmacokinetic study, male S.D. rats (average weight 300 g) were fasted overnight to prevent coprophagia but allowing free access to water. The rats were randomly divided into four groups (6 animals each). The dosages of taxanes used in the pharmacokinetic study were based on the previously published reports[15]–[17]. For solution, T-13 and T-26 were dissolved in a mixture of Tween 80 and ethanol (50:50, v/v) at 50 mg/mL for intravenous and oral administration, respectively. Group I received the T-13 stock solution diluted with normal saline solution up to 1 mL at a dose of 5 mg/kg for intravenous injection. Group II received T-13 at a dose of 60 mg/kg for oral administration. Group III received the compound T-26 stock solution diluted with normal saline solution up to 1 mL at a dose of 5 mg/kg for intravenous injection. Group IV received T-26 at a dose of 60 mg/kg for oral administration.
Blood samples (~0.20 mL) were collected into heparin coated tubes at 0, 5, 10, 20, 40 min, 1, 2, 4, 6, 8, 12 and 24 h after intravenous injection and 5, 15, 30, 45 min, 1, 2, 4, 6, 8, 12 and 24 h after oral administration. Blood samples were centrifuged at 12,000 rpm for 10 min. The supernatant fractions were transferred into labeled microcentrifuge tubes and stored at −40 °C until LC-MS/MS analysis.
The concentration of T-13 and T-26 were determined in plasma by LC/MS as described above. Calibration curves were used for the conversion of the T-13/Paclitaxel chromatographic area to the concentration. Calibrator and quality control samples were prepared by adding appropriate volumes of standard T-13 or T-26 acetonitrile solution to drug-free plasma. Calibration curves were designed over the range 5–10,000 ng/mL (γ^2 > 0.999). An aliquot (100 μL) of plasma sample was mixed with 100 μL of acetonitrile containing internal standard (PTX, 500 ng/mL), followed by vortex mixing. Then the mixture was added 3 mL of ethyl acetate, followed by vortex gentle agitation for 3 min. […] The supernatant fraction was transferred to auto-sampler vial, and analyzed by HPLC. […]
The pharmacokinetic analysis of concentration-time data obtained after the administration of the compounds T-13 and T-26 were analyzed by a noncompartmental model using Xcalibur® (version 1.3) Software (Thermo Finnigan). The following pharmacokinetic parameters were calculated from the plasma data of Group I and Group III using WinNonlin5.2. Software: total area under the plasma concentration versus time curve, determined by extrapolation from 0 to ∞ after intravenous administration (AUCiv), half-life of the terminal phase (t1/2) and the mean residence time (MRT). Other parameters such as maximum plasma concentration (Cmax) and the time to reach Cmax (Tmax) were also analyzed after oral administration in rats.

[4] = design: method as in PMID 23811429; conditions: paclitaxel, rats; cited from earlier work

T1 sequence (P08183 whole entry): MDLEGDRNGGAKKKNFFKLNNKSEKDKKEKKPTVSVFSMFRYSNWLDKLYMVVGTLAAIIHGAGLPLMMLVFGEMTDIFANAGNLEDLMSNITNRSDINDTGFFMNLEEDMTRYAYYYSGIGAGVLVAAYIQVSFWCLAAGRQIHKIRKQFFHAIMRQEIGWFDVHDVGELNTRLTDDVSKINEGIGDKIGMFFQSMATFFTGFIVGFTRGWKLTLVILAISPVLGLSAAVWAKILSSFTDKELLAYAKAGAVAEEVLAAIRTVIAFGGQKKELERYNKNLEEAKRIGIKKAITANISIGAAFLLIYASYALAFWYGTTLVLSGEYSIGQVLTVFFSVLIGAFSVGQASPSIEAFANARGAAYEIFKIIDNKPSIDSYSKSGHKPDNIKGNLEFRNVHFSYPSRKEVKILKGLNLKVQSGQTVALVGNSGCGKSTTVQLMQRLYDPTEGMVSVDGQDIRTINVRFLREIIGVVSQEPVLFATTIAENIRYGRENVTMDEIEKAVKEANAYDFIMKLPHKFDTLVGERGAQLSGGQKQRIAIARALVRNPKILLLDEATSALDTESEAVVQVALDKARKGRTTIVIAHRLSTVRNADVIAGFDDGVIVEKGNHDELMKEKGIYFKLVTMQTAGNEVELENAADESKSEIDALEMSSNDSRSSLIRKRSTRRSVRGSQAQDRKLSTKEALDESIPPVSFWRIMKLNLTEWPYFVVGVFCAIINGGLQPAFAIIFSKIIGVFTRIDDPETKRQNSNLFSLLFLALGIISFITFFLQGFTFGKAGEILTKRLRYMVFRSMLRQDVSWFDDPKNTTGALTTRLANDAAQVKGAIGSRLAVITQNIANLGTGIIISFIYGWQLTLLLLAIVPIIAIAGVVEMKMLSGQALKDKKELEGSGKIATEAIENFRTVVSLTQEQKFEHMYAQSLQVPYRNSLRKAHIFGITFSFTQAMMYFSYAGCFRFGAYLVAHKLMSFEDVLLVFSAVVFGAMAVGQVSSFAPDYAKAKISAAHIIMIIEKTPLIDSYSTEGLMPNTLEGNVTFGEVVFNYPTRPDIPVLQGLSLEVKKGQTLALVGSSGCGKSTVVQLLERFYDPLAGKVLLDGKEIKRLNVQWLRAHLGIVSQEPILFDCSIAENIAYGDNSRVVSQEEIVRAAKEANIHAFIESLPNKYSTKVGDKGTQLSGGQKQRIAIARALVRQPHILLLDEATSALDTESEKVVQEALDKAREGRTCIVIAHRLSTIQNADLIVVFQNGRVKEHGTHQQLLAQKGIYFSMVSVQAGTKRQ

Compound: CO[C@H]1C(=O)[C@]2(C)[C@@H](OC(=O)N(C)C)C[C@H]3OC[C@@]3(OC(C)=O)[C@H]2[C@H](OC(=O)c2ccccc2)[C@]2(O)C[C@H](OC(=O)[C@H](O)[C@H](CC(C)C)NC(=O)OC(C)(C)C)C(C)=C1C2(C)C [Compound T-15]
- efflux ratio [1]: less than 2.0
- permeability [1]: highest permeability

Compound: CO[C@H]1C[C@H]2OC[C@@]2(OC(C)=O)[C@H]2[C@H](OC(=O)c3ccccc3)[C@]34OC(=O)O[C@H]3[C@H](OC(=O)[C@H](O)[C@@H](NC(=O)OC(C)(C)C)c3ccccc3)C(C)=C([C@@H](OC(=O)N(C)C)C(=O)[C@]12C)C4(C)C [Compound T-26]
- P-gp substrate activity [2]: poor substrates of P-gp
- P-gp inhibition [2]: possessed inhibiting effects of P-gp mediated efflux
- efflux ratio [1]: less than 2.0
- permeability [1]: highest permeability
- bioavailability [3]: ~66%
- F (absolute oral bioavailability) [3]: 65.79%

Compound: CO[C@H]1C(=O)[C@]2(C)[C@@H](OC(=O)N(C)C)C[C@H]3OC[C@@]3(OC(C)=O)[C@H]2[C@H](OC(=O)c2ccccc2)[C@]2(O)C[C@H](OC(=O)[C@H](O)[C@@H](NC(=O)OC(C)(C)C)c3ccccc3)C(C)=C1C2(C)C [Compound T-13]
- P-gp substrate activity [2]: poor substrates of P-gp
- P-gp inhibition [2]: possessed inhibiting effects of P-gp mediated efflux
- efflux ratio [1]: less than 2.0
- permeability [1]: highest permeability
- bioavailability [3]: ~11%
- F (absolute oral bioavailability) [3]: 10.71%

Compound: CC(=O)O[C@H]1C(=O)[C@@]2(C)[C@H]([C@H](OC(=O)c3ccccc3)[C@]3(O)C[C@H](OC(=O)[C@H](O)[C@@H](NC(=O)c4ccccc4)c4ccccc4)C(C)=C1C3(C)C)[C@]1(OC(C)=O)CO[C@@H]1C[C@@H]2O [paclitaxel, Paclitaxel]
- oral bioavailability [4]: 5%
